By melting point is commonly meant the temperature, or range, at which the solid turns liquid. The Ki is a measure of affinity in units of concentration, obtained from inhibition or displacement.

Series [1] concerns the target T1, GABA A receptor α5β3γ2 (α5 subunit) (Rattus norvegicus, UniProt P18508+P19969).
T1 construct: expressed in transfected cells; host or cells: SF9 insect cells (membrane preparation)
Put plainly: [3H]flumazenil ([3H]Ro 15-1788) competition binding assay, membranes of SF9 cells expressing rat GABA A receptors. The conditions noted are these: displacement of [3H]Ro 15-1788 (0.5 nM for α5), 1 hour at 4° C., means of two determinations; especially preferred compounds. As for the experimental part:
The affinity of compounds at GABA A receptor subtypes was measured by competition for [^3H]flumazenil ([^3H]Ro 15-1788) (85 Ci/mmol; Amersham) binding to SF9 cells expressing rat receptors of composition α1β3γ2, α2β3γ2, α3β3γ2 and α5β3γ2.
Cell pellets were suspended in Krebs-tris buffer (4.8 mM KCl, 1.2 mM CaCl2, 1.2 mM MgCl2, 120 mM NaCl, 15 mM Tris; pH 7.5; binding assay buffer), homogenized by polytron for ca. 15 sec on ice and centrifuged in UZ for 30 min at 4° C. (100000 g; rotor: TFT 4594=[…]). The cell pellets were re-suspended in Krebs-tris buffer and homogenized by polytron for ca. 15 sec on ice. Aliquots of 1 ml were prepared, protein was measured (Bradford method) and the resulting membrane aliquots were stored at −70° C.
Radioligand binding assays were carried out in a volume of 200 μL (96-well plates) which contained 100 μL of cells, [^3H]Ro 15-1788 at a concentration of 1 nM for (α1, α2, α3 subunits and 0.5 nM for α5 subunits and the test compound in the range of 10^−10−3×10^−6 M. Nonspecific binding was defined by 10^−5 M diazepam and typically represented less than 5% of the total binding. Assays were incubated to equilibrium for 1 hour at 4° C. and harvested onto GF/C uni-filters (Packard) by filtration using a Packard harvester and washing with ice-cold wash buffer (50 mM Tris; pH 7.5). After drying, filter-retained radioactivity was detected by liquid scintillation counting. Ki values were calculated using Excel-Fit (Microsoft) and are the means of two determinations.

Compound `CCOC(=O)c1ncnc2c1Cc1cncn1-c1cc(Br)ccc1-2` returned a melting point of 210 °C.

In turn, `CCOC(=O)c1ncnc2c1Cc1cnc(C)n1-c1cc(C)ccc1-2` gave a melting point of 200 °C.

Compound “3-Bromo-6-methyl-9H-imidazo[1,5-a]pyrimido[5,4-d][1]benzazepine-10-carboxylic Acid Ethyl Ester [Example 22]” yielded a Ki in series [1] of 12.5 nM.

Consider `CCOC(=O)c1ncnc2c1Cc1cnc(C(C)C)n1-c1cc(Cl)ccc1-2`, for which the melting point amounted to 192 °C.

In turn, `CCOC(=O)c1ncnc2c1Cc1cnc(Cc3c[nH]c4ccccc34)n1-c1cc(F)ccc1-2` showed a melting point of 230 °C.

The compound `CCOC(=O)c1ncnc2c1Cc1cnc(Cc3c[nH]c4ccccc34)n1-c1ccccc1-2` yielded a melting point of 120 °C.

In turn, “6-Cyclopropyl-9H-imidazo[1,5-a]pyrimido[5,4-d][1]benzazepine-10-carboxylic Acid Ethyl Ester [Example 4]” showed a Ki in series [1] of 7.6 nM.

Regarding `CCOC(=O)c1ncnc2c1Cc1cnc(C)n1-c1cc(C)c(C)cc1-2`, the melting point was determined as 210 °C.

In series [1], “9H-Imidazo[1,5-a]pyrimido[5,4-d][1]benzazepine-10-carboxylic Acid Ethyl Ester [Example 1]” came in with a Ki of 3.7 nM.

Compound `CCOC(=O)c1ncnc2c1Cc1cnc(Cc3ccc(OC)cc3)n1-c1cc(Br)ccc1-2` came in with a melting point of 180 °C.

In series [1], “3-Fluoro-6-methyl-9H-imidazo[1,5-a]pyrimido[5,4-d][1]benzazepine-10-carboxylic Acid Ethyl Ester [Example 8]” came in with a Ki of 4.6 nM.

“3-Fluoro-6-(1-methylethyl)-9H-imidazo[1,5-a]pyrimido[5,4-d][1]benzazepine-10-carboxylic Acid Ethyl Ester [Example 10]” displayed a Ki in series [1] of 11.2 nM.

“6-Propyl-9H-imidazo[1,5-a]pyrimido[5,4-d][1]benzazepine-10-carboxylic Acid Ethyl Ester [Example 2]” registered a Ki in series [1] of 5.5 nM.

The compound `CCOC(=O)c1ncnc2c1Cc1cnc(Cc3ccc(OC)cc3)n1-c1cc(F)ccc1-2` yielded a melting point of 185 °C.

The compound `CCOC(=O)c1ncnc2c1Cc1cnc(Cc3ccc(OC)cc3)n1-c1cc(Cl)ccc1-2` returned a melting point of 192 °C.

On to “6-Methyl-9H-imidazo[1,5-a]pyrimido[5,4-d][1]benzazepine-10-carboxylic Acid Ethyl Ester [Example 29]”, for which, in series [1], the Ki amounted to 3.8 nM.

On to “3-Fluoro-6-propyl-9H-imidazo[1,5-a]pyrimido[5,4-d][1]benzazepine-10-carboxylic Acid Ethyl Ester [Example 9]”, for which the inhibition constant (Ki) in series [1] amounted to 8 nM.

As to `CCOC(=O)c1ncnc2c1Cc1cnc(C(C)(C)C)n1-c1ccccc1-2`, the melting point turned out to be 250 °C.

Compound `CCOC(=O)c1ncnc2c1Cc1cnc(Cc3c[nH]c4ccccc34)n1-c1cc(C)c(C)cc1-2` yielded a melting point of 135 °C.

In turn, `CCOC(=O)c1ncnc2c1Cc1cnc(C3CC3)n1-c1cc(Br)ccc1-2` had a melting point of 230 °C.

For “6-Cyclopropyl-3-fluoro-9H-imidazo[1,5-a]pyrimido[5,4-d][1]benzazepine-10-carboxylic Acid Ethyl Ester [Example 11]”, the Ki in series [1] is 7.8 nM.

`Cc1ncc2n1-c1ccccc1-c1ncnc(-c3nc(C4CC4)no3)c1C2` had a melting point of 216 to 218 °C.

Consider `CCOC(=O)c1ncnc2c1Cc1cnc(Cc3c[nH]c4ccccc34)n1-c1cc(Cl)ccc1-2`, for which the melting point worked out at 120 °C.

`CCOC(=O)c1ncnc2c1Cc1cnc(C3CC3)n1-c1cc(C)ccc1-2` gave a melting point of 250 °C.

With `CCOC(=O)c1ncnc2c1Cc1cnc(Cc3ccc(OC)cc3)n1-c1cc(C)c(C)cc1-2`, the melting point is 150 °C.

`CCOC(=O)c1ncnc2c1Cc1cnc(C3CC3)n1-c1cc(Cl)ccc1-2` registered a melting point of 230 °C.

For the compound `CCCc1ncc2n1-c1cc(C)ccc1-c1ncnc(C(=O)OCC)c1C2`, the melting point worked out at 250 °C.

`CCOC(=O)c1ncnc2c1Cc1cnc(C(C)(C)C)n1-c1cc(F)ccc1-2`: the melting point worked out at 233 °C.

`CCCc1ncc2n1-c1cc(C)c(C)cc1-c1ncnc(C(=O)OCC)c1C2` returned a melting point of 213 °C.

On to `CCOC(=O)c1ncnc2c1Cc1cnc(-c3ccccc3)n1-c1ccccc1-2`, for which the melting point lay in the range of 244 to 246 °C.

As to `CCOC(=O)c1ncnc2c1Cc1cnc(C(C)(C)C)n1-c1cc(Cl)ccc1-2`, the melting point was determined as 180 °C.

In turn, “6-(1-Methylethyl)-9H-imidazo [1,5-a]pyrimido[5,4-d][1]benzazepine-10-carboxylic Acid Ethyl Ester [Example 3]” showed a Ki in series [1] of 8.9 nM.

Consider `Cc1ncc2n1-c1ccccc1-c1ncnc(C(=O)O)c1C2`, for which the melting point was in the range of 285 to 287 °C.

“6-[(4-Methoxyphenyl)Methyl]-9H-imidazo[1,5-a]pyrimido[5,4-d][1]benzazepine-10-carboxylic Acid Ethyl Ester [Example 6]”: in series [1], the affinity, expressed as Ki, was 13.8 nM.
